According to ChEMBL document CHEMBL1201862, “PubChem BioAssay data set” (2004):
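These data come from cells grown in 96-well plates and exposed to compound for 48 hours at five concentrations. At the GI50, growth is halved.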 Activity calls are given as the source filed them. Cut-off read from the data, not from the text of the source: active = GI50 up to about 1.1 µM and inactive = higher.

What was measured:
Test in all cases: DTP human tumour cell line panel, 48 h
NCI-H522 = system: NCI-H522
BT-549 = system: BT-549
ACHN = system: ACHN
CAKI-1 = system: CAKI-1
K562 = system: K562
HOP-92 = system: HOP-92
Malme-3M = system: Malme-3M
HT-29 = system: HT-29
A498 = system: A498
NCI-H226 = system: NCI-H226
OVCAR-8 = system: OVCAR-8
OVCAR-4 = system: OVCAR-4
OVCAR-3 = system: OVCAR-3
SK-MEL-2 = system: SK-MEL-2
TK-10 = system: TK-10
SF-268 = system: SF-268
RXF 393 = system: RXF 393
NCI-H460 = system: NCI-H460
NCI/ADR-RES = system: NCI/ADR-RES
M14 = system: M14

Measured: GI50

Cc1nc([N+](=O)[O-])cn1-c1nc2ccccn2c1[N+](=O)[O-]
inactive: NCI-H522 55 µM | BT-549 > 100 µM | ACHN > 100 µM | CAKI-1 53.5 µM | K562 80.4 µM | HOP-92 > 100 µM | Malme-3M 43.8 µM | HT-29 64.9 µM | A498 > 100 µM | NCI-H226 > 100 µM | OVCAR-8 86.1 µM | OVCAR-4 > 100 µM | OVCAR-3 > 100 µM | SK-MEL-2 43.4 µM | TK-10 67.5 µM | SF-268 > 100 µM | RXF 393 17.7 µM | NCI-H460 45.1 µM | NCI/ADR-RES > 100 µM | M14 > 100 µM

O=c1c2ccccc2sc2nc(CCl)nn12
inactive: NCI-H522 44.8 µM | BT-549 27 µM | ACHN 6.31 µM | CAKI-1 7.82 µM | K562 2.32 µM | HOP-92 3.62 µM | Malme-3M 18.5 µM | HT-29 12.4 µM | A498 2.64 µM | NCI-H226 > 100 µM | OVCAR-8 > 100 µM | OVCAR-4 > 100 µM | OVCAR-3 > 100 µM | SK-MEL-2 48.4 µM | TK-10 10.4 µM | SF-268 20.2 µM | RXF 393 6.75 µM | NCI-H460 5.64 µM | NCI/ADR-RES > 100 µM | M14 22 µM

Cc1cc(O)c2cc3c(O)c(O)ccc3cc2c1
active: NCI-H522 0.789 µM | BT-549 0.726 µM | K562 1.04 µM | OVCAR-8 0.743 µM | OVCAR-4 0.536 µM | OVCAR-3 0.46 µM | SK-MEL-2 0.895 µM | SF-268 1.07 µM | RXF 393 0.713 µM | NCI-H460 0.524 µM | NCI/ADR-RES 0.438 µM
inactive: ACHN 1.77 µM | CAKI-1 2.08 µM | HOP-92 2.61 µM | Malme-3M 1.4 µM | HT-29 2.54 µM | A498 3.12 µM | NCI-H226 1.23 µM | TK-10 3.78 µM | M14 2.86 µM

COC(=O)n1c(=O)n(-c2ccccc2)c(=O)n1C(=O)Nc1ccccc1
inactive: NCI-H522 > 100 µM | BT-549 > 100 µM | ACHN > 100 µM | CAKI-1 > 100 µM | K562 51.3 µM | HOP-92 > 100 µM | Malme-3M > 100 µM | HT-29 > 100 µM | A498 > 100 µM | NCI-H226 > 100 µM | OVCAR-8 > 100 µM | OVCAR-4 3.42 µM | OVCAR-3 > 100 µM | SK-MEL-2 > 100 µM | TK-10 > 100 µM | SF-268 > 100 µM | RXF 393 > 100 µM | NCI-H460 > 100 µM | NCI/ADR-RES > 100 µM | M14 > 100 µM

CC(C)(C)c1cc(C2COC(=O)COCC(=O)OCCOCCOCCO2)cc(C(C)(C)C)c1O (stereo not given)
inactive: NCI-H522 > 52.8 µM | BT-549 > 57.5 µM | ACHN 19.6 µM | CAKI-1 24.7 µM | K562 > 100 µM | HOP-92 22.9 µM | Malme-3M > 100 µM | HT-29 98.9 µM | A498 > 51.4 µM | NCI-H226 > 100 µM | OVCAR-8 62.4 µM | OVCAR-4 > 100 µM | OVCAR-3 > 100 µM | SK-MEL-2 32.1 µM | TK-10 20.4 µM | SF-268 18.2 µM | RXF 393 20.7 µM | NCI-H460 30.9 µM | NCI/ADR-RES > 100 µM | M14 19.4 µM

C[N+](C)(C)CC1Cc2ccccc2C1=O (stereo not given)
inactive: NCI-H522 2.36 µM | BT-549 > 10 µM | ACHN > 10 µM | CAKI-1 > 4.8 µM | K562 1.4 µM | HOP-92 3.91 µM | Malme-3M 2.11 µM | HT-29 6.38 µM | A498 > 10 µM | NCI-H226 > 10 µM | OVCAR-8 1.89 µM | OVCAR-4 2.72 µM | OVCAR-3 > 5.81 µM | SK-MEL-2 > 9.14 µM | TK-10 > 8.36 µM | SF-268 > 10 µM | RXF 393 > 9.31 µM | NCI-H460 > 10 µM | NCI/ADR-RES > 4.78 µM | M14 2.75 µM

COc1cccc2c1C(=O)c1c(O)c3c(c(O)c1C2=O)C[C@@](O)(C(C)=O)C[C@@H]3OC1CC(N(C)C)C(O)C(C)O1 (stereo not given in full)
active: NCI-H522 0.0046 µM | BT-549 0.00114 µM | ACHN 0.00337 µM | CAKI-1 0.00904 µM | K562 0.00318 µM | HOP-92 0.084 µM | Malme-3M 0.0405 µM | HT-29 0.00356 µM | A498 0.00464 µM | NCI-H226 0.029 µM | OVCAR-8 0.00405 µM | OVCAR-4 0.0306 µM | OVCAR-3 0.00649 µM | SK-MEL-2 0.0798 µM | TK-10 0.00514 µM | SF-268 0.00436 µM | RXF 393 0.00681 µM | NCI-H460 0.00383 µM | NCI/ADR-RES 0.0575 µM | M14 0.00439 µM

O=c1[nH]c(=O)n(C2COC(CO)C2O)cc1F (stereo not given)
inactive: NCI-H522 43.7 µM | BT-549 32.7 µM | ACHN 38.5 µM | CAKI-1 > 100 µM | K562 56.5 µM | HOP-92 50.8 µM | Malme-3M 9.29 µM | HT-29 39 µM | A498 5.28 µM | NCI-H226 > 100 µM | OVCAR-8 57 µM | OVCAR-4 > 100 µM | OVCAR-3 15.5 µM | SK-MEL-2 61.4 µM | TK-10 68.1 µM | SF-268 64.3 µM | RXF 393 2.94 µM | NCI-H460 4.98 µM | NCI/ADR-RES 72.1 µM | M14 50.6 µM

CC(C)(C)N1CC1CNC(=O)C(=O)NCC1CN1C(C)(C)C (stereo not given)
inactive: NCI-H522 1.31 µM | BT-549 29.9 µM | ACHN 1.29 µM | CAKI-1 6.31 µM | K562 3.79 µM | HOP-92 9.51 µM | Malme-3M 3.4 µM | HT-29 2.45 µM | A498 2.68 µM | NCI-H226 7.83 µM | OVCAR-8 1.79 µM | OVCAR-4 28.5 µM | OVCAR-3 4.62 µM | SK-MEL-2 5.33 µM | TK-10 51.1 µM | SF-268 3.03 µM | RXF 393 1.67 µM | NCI-H460 1.53 µM | NCI/ADR-RES 2.55 µM | M14 3.61 µM

[O-][S@@+]1c2ccc3ccccc3c2N[C@@H]2[C@H]1[C@H]1C=C[C@@H]2C1
inactive: NCI-H522 21.5 µM | BT-549 32.4 µM | ACHN > 100 µM | CAKI-1 > 100 µM | K562 37.1 µM | HOP-92 38.4 µM | Malme-3M 58.9 µM | HT-29 34.9 µM | A498 71.6 µM | NCI-H226 50.8 µM | OVCAR-8 35.8 µM | OVCAR-4 23.9 µM | OVCAR-3 11.9 µM | SK-MEL-2 37.4 µM | TK-10 51.1 µM | SF-268 61 µM | RXF 393 19.5 µM | NCI-H460 37.6 µM | NCI/ADR-RES 25.8 µM | M14 48.4 µM

CCCCCCCCCCCCCCCCCC(=O)Nc1ccn(C2OC(CO)C(O)C2O)c(=O)n1 (stereo not given)
inactive: NCI-H522 5.04 µM | BT-549 > 54.2 µM | ACHN 4.74 µM | CAKI-1 10.5 µM | K562 7.67 µM | HOP-92 58.1 µM | Malme-3M > 27.9 µM | HT-29 20.1 µM | A498 15.3 µM | NCI-H226 > 90.2 µM | OVCAR-8 7.48 µM | OVCAR-4 > 100 µM | OVCAR-3 7.93 µM | SK-MEL-2 > 100 µM | TK-10 > 100 µM | SF-268 20.1 µM | RXF 393 26.8 µM | NCI-H460 2.69 µM | NCI/ADR-RES 30.5 µM | M14 14.2 µM

O=[N+]([O-])/C(C(Cl)=C(Cl)Cl)=C(\N1CCCCC1)n1nnc2ccccc21
inactive: NCI-H522 20.3 µM | BT-549 23.3 µM | ACHN 19.7 µM | CAKI-1 15.3 µM | K562 8.41 µM | HOP-92 19.3 µM | Malme-3M 21.6 µM | HT-29 19.5 µM | A498 19.2 µM | NCI-H226 20 µM | OVCAR-8 19.9 µM | OVCAR-4 47.1 µM | OVCAR-3 17.9 µM | SK-MEL-2 17.1 µM | TK-10 18.2 µM | SF-268 20.8 µM | RXF 393 16.3 µM | NCI-H460 22.4 µM | NCI/ADR-RES 29.6 µM | M14 17.3 µM

Oc1cc(-c2ccccc2)cn2c1nc1ccccc12
inactive: BT-549 4.55 µM | ACHN 6.41 µM | CAKI-1 2.91 µM | HOP-92 > 25.5 µM | Malme-3M 1.41 µM | HT-29 8.63 µM | A498 11 µM | NCI-H226 > 25.4 µM | OVCAR-8 2.42 µM | OVCAR-4 4.23 µM | OVCAR-3 1.22 µM | SK-MEL-2 2.11 µM | TK-10 > 100 µM | SF-268 3.92 µM | RXF 393 > 22 µM | NCI/ADR-RES 1.21 µM
active: NCI-H522 0.243 µM | K562 0.525 µM | NCI-H460 0.76 µM | M14 0.9 µM

CCOC(=O)C(NC(=O)c1cccc(Cl)c1)(N1CCN(c2cc3c(cc2F)c(=O)c(C(=O)O)cn3CC)CC1)C(F)(F)F (stereo not given)
inactive: NCI-H522 4.17 µM | BT-549 19.4 µM | ACHN 15.7 µM | CAKI-1 23.7 µM | K562 5.73 µM | HOP-92 13.8 µM | Malme-3M 18.2 µM | HT-29 17.6 µM | A498 20.7 µM | NCI-H226 18.2 µM | OVCAR-8 16.6 µM | OVCAR-4 18.6 µM | OVCAR-3 14.8 µM | SK-MEL-2 13.5 µM | TK-10 21.3 µM | SF-268 14.1 µM | RXF 393 18.2 µM | NCI-H460 22.3 µM | NCI/ADR-RES 39.8 µM | M14 16.8 µM
